Experimental data reported in US12233161B1, “Lipids and lipid nanoparticle formulations” (LONGUIDE BIOPHARMA CORPORATION, priority 2024, dated 2025).

Key:
[1] = Particle size and PDI of nucleic acid lipid nanoparticle preparations by dynamic light scattering; assay type: physicochemical
Procedure: The 7.5 μL nucleic acid lipid nanoparticle solution (containing approximately 0.04 mg/mL mRNA) was taken and added with 200 μL ultrapure water, mixed by gentle blowing using a pipette tip, and the particle size of the nanopreparation was detected by dynamic lightscattering (DLS) using a Malvern Dynamic Light Scattering Instrument (Malvern Instruments Ltd., ZEN3700, UK).
27.5 μL nucleic acid lipid nanoparticle solution (containing about 0.04 mg/mL mRNA) was taken and added with 200 μL ultrapure water. A pipette tip was used to gently blow the sample and mix well. The particle size of the nanopreparation was detected by Malvern Dynamic Light Scattering Instrument (Malvern Instruments Ltd., ZEN3700, UK). After the detection, the sample was recovered to an EP tube, and 600 μL of ultrapure water was added, gently blown with a pipette tip, and the potential of the nanopreparation was measured by a Malvern particle size meter.

[2] = tested on: mice; experiment: In vivo delivery of FLuc-mRNA lipid nanoparticles in mice, in vivo imaging (IVIS)
Method in brief: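 Mice (n=3) received about 75 μL FLuc-mRNA LNP per mouse intramuscularly (rectus femoris), intravenously (tail vein), intraperitoneally or subcutaneously (back). After injection, D-luciferin (200 μL, 15 mg/mL) was given i.p. 10-15 min before IVIS imaging.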

[3] = DMG-PEG2000:DSPC:Chol:Lipid 1.00:11.50:22.50:65.00, N/P 45, mRNA LNP
[4] = DMG-PEG2000:DSPC:Chol:Lipid 1.00:16.00:48.00:35.00, N/P 30, mRNA LNP
[5] = DMG-PEG2000:DSPC:Chol:Lipid 1.40:11.15:38.95:48.50, N/P 45, mRNA LNP
[6] = DMG-PEG2000:DSPC:Chol:Lipid 1.00:11.50:22.50:65.00, N/P 45, IV, liver
[7] = DMG-PEG2000:DSPC:Chol:Lipid 1.00:11.50:22.50:65.00, N/P 45, IV, lung
[8] = DMG-PEG2000:DSPC:Chol:Lipid 1.00:11.50:22.50:65.00, N/P 45, IV, spleen
[9] = DMG-PEG2000:DSPC:Chol:Lipid 1.00:16.00:48.00:35.00, N/P 30, IV, liver
[10] = DMG-PEG2000:DSPC:Chol:Lipid 1.00:16.00:48.00:35.00, N/P 30, IV, lung
[11] = DMG-PEG2000:DSPC:Chol:Lipid 1.00:16.00:48.00:35.00, N/P 30, IV, spleen
[12] = DMG-PEG2000:DSPC:Chol:Lipid 1.40:11.15:38.95:48.50, N/P 48, mRNA LNP
[13] = DMG-PEG2000:DSPC:Chol:Lipid 1.77:14.07:49.16:35.00, N/P 48, mRNA LNP
[14] = DMG-PEG2000:DSPC:Chol:Lipid 1.09:8.66:30.25:60.00, N/P 13.3, mRNA LNP
[15] = DMG-PEG2000:DSPC:Chol:Lipid 1.40:11.15:38.95:48.50, N/P 13.3, mRNA LNP
[16] = DMG-PEG2000:DSPC:Chol:Lipid 1.40:11.15:38.95:48.50, N/P 16.7, mRNA LNP
[17] = DMG-PEG2000:DSPC:Chol:Lipid 1.00:16.00:48.00:35.00, N/P 18, mRNA LNP
[18] = DMG-PEG2000:DSPC:Chol:Lipid 1.50:4.00:69.50:25.00, N/P 18, mRNA LNP
[19] = DMG-PEG2000:DSPC:Chol:Lipid 1.50:16.00:17.50:65.00, N/P 45, mRNA LNP
[20] = DMG-PEG2000:DSPC:Chol:Lipid 1.77:14.07:49.16:35.00, N/P 30, mRNA LNP
[21] = DMG-PEG2000:DSPC:Chol:Lipid 1.00:16.00:48.00:35.00, N/P 18, IV, liver
[22] = DMG-PEG2000:DSPC:Chol:Lipid 1.00:16.00:48.00:35.00, N/P 18, IV, lung
[23] = DMG-PEG2000:DSPC:Chol:Lipid 1.00:16.00:48.00:35.00, N/P 18, IV, spleen
[24] = DMG-PEG2000:DSPC:Chol:Lipid 1.50:16.00:17.50:65.00, N/P 45, IV, liver
[25] = DMG-PEG2000:DSPC:Chol:Lipid 1.50:16.00:17.50:65.00, N/P 45, IV, lung
[26] = DMG-PEG2000:DSPC:Chol:Lipid 1.50:16.00:17.50:65.00, N/P 45, IV, spleen
[27] = DMG-PEG2000:DSPC:Chol:Lipid 0.95:7.58:26.47:65.00, N/P 18, mRNA LNP
[28] = DMG-PEG2000:DSPC:Chol:Lipid 1.40:11.15:38.95:48.50, N/P 18, mRNA LNP
[29] = DMG-PEG2000:DSPC:Chol:Lipid 1.40:11.15:38.95:48.50, N/P 18, IV, whole body scan
[30] = DMG-PEG2000:DSPC:Chol:Lipid 1.40:11.15:38.95:48.50, N/P 30, mRNA LNP
[31] = DMG-PEG2000:DSPC:Chol:Lipid 1.40:11.15:38.95:48.50, N/P 30, IM, whole body scan
[32] = DMG-PEG2000:DSPC:Chol:Lipid 1.40:11.15:38.95:48.50, N/P 30, IV, body (whole body scan)
[33] = DMG-PEG2000:DSPC:Chol:Lipid 1.40:11.15:38.95:48.50, N/P 18, IM, whole body scan

CCCCCCCCCCCCOC(=O)C(O)CN(CCCN(CC(O)C(=O)OCCCCCCCCCCCC)CC(O)C(=O)OCCCCCCCCCCCC)CCCN(CC(O)C(=O)OCCCCCCCCCCCC)CC(O)C(=O)OCCCCCCCCCCCC (centres unmarked) [Compound L0269]
PDI [1, 3]: 0.06 ± 0.01
Particle size [1, 3]: 128.20 ± 0.89 nm
PDI [1, 4]: 0.11 ± 0.01
Particle size [1, 4]: 125.17 ± 1.03 nm
PDI [1, 5]: 0.10 ± 0.01
Particle size [1, 5]: 142.10 ± 0.78 nm
IVIS ([2]; DMG-PEG2000:DSPC:Chol:Lipid 1.00:11.50:22.50:65.00, N/P 45, IV, body): 9.49 × 10^8
% of organ targeting [2, 6]: 69.52%
IVIS [2, 6]: 2.05 × 10^8
% of organ targeting [2, 7]: 0.64%
IVIS [2, 7]: 1.88 × 10^6
% of organ targeting [2, 8]: 29.84%
IVIS [2, 8]: 8.80 × 10^7
IVIS ([2]; DMG-PEG2000:DSPC:Chol:Lipid 1.00:16.00:48.00:35.00, N/P 30, IV, body): 5.46 × 10^8
% of organ targeting [2, 9]: 28.77%
IVIS [2, 9]: 7.87 × 10^7
% of organ targeting [2, 10]: 0.33%
IVIS [2, 10]: 8.92 × 10^5
% of organ targeting [2, 11]: 70.91%
IVIS [2, 11]: 1.94 × 10^8
IVIS ([2]; DMG-PEG2000:DSPC:Chol:Lipid 1.40:11.15:38.95:48.50, N/P 45, IM, whole body scan): 3.83 × 10^7
in vivo delivery efficiency as compared to the benchmark compound SM102 ([2]; certain formulations, Table 2): superior in vivo delivery efficiency

CCCCCCOCOCCCCCCOC(=O)C(O)CN(CCCN(CC(O)C(=O)OCCCCCCOCOCCCCCC)CC(O)C(=O)OCCCCCCOCOCCCCCC)CCCN(CC(O)C(=O)OCCCCCCOCOCCCCCC)CC(O)C(=O)OCCCCCCOCOCCCCCC (centres unmarked) [Compound L0270]
PDI [1, 12]: 0.12 ± 0.00
Particle size [1, 12]: 131.00 ± 1.32 nm
PDI [1, 13]: 0.10 ± 0.03
Particle size [1, 13]: 144.83 ± 1.39 nm
IVIS ([2]; DMG-PEG2000:DSPC:Chol:Lipid 1.40:11.15:38.95:48.50, N/P 48, IM, whole body scan): 2.09 × 10^7
IVIS ([2]; DMG-PEG2000:DSPC:Chol:Lipid 1.40:11.15:38.95:48.50, N/P 48, IV, whole body scan): 1.56 × 10^9
IVIS ([2]; DMG-PEG2000:DSPC:Chol:Lipid 1.77:14.07:49.16:35.00, N/P 48, IH, whole body scan): 2.89 × 10^6
in vivo delivery efficiency as compared to the benchmark compound SM102 ([2]; certain formulations, Table 2): superior in vivo delivery efficiency

CCCCCCOCOCCCCCCOC(=O)C(O)CN(CCCN(C)CCCN(CC(O)C(=O)OCCCCCCOCOCCCCCC)CC(O)C(=O)OCCCCCCOCOCCCCCC)CC(O)C(=O)OCCCCCCOCOCCCCCC (centres unmarked) [Compound L0271]
PDI [1, 14]: 0.06 ± 0.01
Particle size [1, 14]: 145.73 ± 2.21 nm
PDI [1, 15]: 0.04 ± 0.03
Particle size [1, 15]: 124.63 ± 0.70 nm
IVIS ([2]; DMG-PEG2000:DSPC:Chol:Lipid 1.09:8.66:30.25:60.00, N/P 13.3, IM, whole body scan): 3.27 × 10^6
IVIS ([2]; DMG-PEG2000:DSPC:Chol:Lipid 1.40:11.15:38.95:48.50, N/P 13.3, IV, whole body scan): 4.16 × 10^8

CCCCCCOCOCCCCCCOC(=O)C(O)CN(CCN(C)CCN(CC(O)C(=O)OCCCCCCOCOCCCCCC)CC(O)C(=O)OCCCCCCOCOCCCCCC)CC(O)C(=O)OCCCCCCOCOCCCCCC (centres unmarked) [Compound L0272]
PDI [1, 16]: 0.09 ± 0.02
Particle size [1, 16]: 137.20 ± 0.61 nm
IVIS ([2]; DMG-PEG2000:DSPC:Chol:Lipid 1.40:11.15:38.95:48.50, N/P 16.7, IM, whole body scan): 9.96 × 10^7
IVIS ([2]; DMG-PEG2000:DSPC:Chol:Lipid 1.40:11.15:38.95:48.50, N/P 16.7, IV, whole body scan): 9.45 × 10^8
in vivo delivery efficiency as compared to the benchmark compound SM102 ([2]; certain formulations, Table 2): superior in vivo delivery efficiency

CCCCCCCCCCCCNC(=O)C(O)CN(CCCN(CCCCCCO)CCCN(CC(O)C(=O)NCCCCCCCCCCCC)CC(O)C(=O)NCCCCCCCCCCCC)CC(O)C(=O)NCCCCCCCCCCCC (centres unmarked) [Compound L0274]
PDI [1, 17]: 0.15 ± 0.01
Particle size [1, 17]: 93.07 ± 0.26 nm
PDI [1, 18]: 0.12 ± 0.00
Particle size [1, 18]: 88.12 ± 0.68 nm
PDI [1, 19]: 0.47 ± 0.04
Particle size [1, 19]: 232.87 ± 6.17 nm
PDI [1, 20]: 0.13 ± 0.01
Particle size [1, 20]: 79.38 ± 0.91 nm
IVIS ([2]; DMG-PEG2000:DSPC:Chol:Lipid 1.00:16.00:48.00:35.00, N/P 18, IV, body): 3.12 × 10^8
% of organ targeting [2, 21]: 29.22%
IVIS [2, 21]: 4.76 × 10^7
% of organ targeting [2, 22]: 8.16%
IVIS [2, 22]: 1.33 × 10^7
% of organ targeting [2, 23]: 62.62%
IVIS [2, 23]: 1.02 × 10^8
IVIS ([2]; DMG-PEG2000:DSPC:Chol:Lipid 1.50:4.00:69.50:25.00, N/P 18, IM, whole body scan): 6.20 × 10^6
IVIS ([2]; DMG-PEG2000:DSPC:Chol:Lipid 1.50:16.00:17.50:65.00, N/P 45, IV, body): 1.52 × 10^8
% of organ targeting [2, 24]: 1.10%
IVIS [2, 24]: 4.17 × 10^6
% of organ targeting [2, 25]: 84.18%
IVIS [2, 25]: 3.19 × 10^8
% of organ targeting [2, 26]: 14.72%
IVIS [2, 26]: 5.58 × 10^7
IVIS ([2]; DMG-PEG2000:DSPC:Chol:Lipid 1.77:14.07:49.16:35.00, N/P 30, IM, whole body scan): 1.23 × 10^7
in vivo delivery efficiency as compared to the benchmark compound SM102 ([2]; certain formulations, Table 2): superior in vivo delivery efficiency
tissue-targeting specificity (lung vs spleen depending on molar percentage of compound) ([2]; certain formulations, Table 2): strong tissue-targeting specificity

CCCCCCCCCCOC(=O)C(O)CN(C)CCN(C)CCN(C)CC(O)C(=O)OCCCCCCCCCC (centres unmarked) [Compound L0275]
PDI [1, 27]: 0.13 ± 0.01
Particle size [1, 27]: 121.27 ± 0.93 nm
PDI [1, 28]: 0.17 ± 0.01
Particle size [1, 28]: 85.45 ± 0.70 nm
IVIS ([2]; DMG-PEG2000:DSPC:Chol:Lipid 0.95:7.58:26.47:65.00, N/P 18, IM, whole body scan): 1.47 × 10^6
IVIS [2, 29]: 4.52 × 10^5

CCCCCCCCCCCCOC(=O)C(O)CN(C)CCN(C)CCN(C)CC(O)C(=O)OCCCCCCCCCCCC (centres unmarked) [Compound L0276]
PDI [1, 30]: 0.23 ± 0.02
Particle size [1, 30]: 98.58 ± 2.89 nm
IVIS [2, 31]: 1.81 × 10^6
IVIS [2, 32]: 1.60 × 10^5

CCCCCCCCCCNC(=O)C(O)CN(C)CCN(C)CCN(C)CC(O)C(=O)NCCCCCCCCCC (centres unmarked) [Compound L0277]
PDI [1, 28]: 0.21 ± 0.00
Particle size [1, 28]: 99.36 ± 2.16 nm
IVIS [2, 33]: 2.60 × 10^5
IVIS [2, 29]: 4.28 × 10^5

CCCCCCCCCCCCNC(=O)C(O)CN(C)CCN(C)CCN(C)CC(O)C(=O)NCCCCCCCCCCCC (centres unmarked) [Compound L0278]
PDI [1, 28]: 0.23 ± 0.01
Particle size [1, 28]: 91.75 ± 0.80 nm
IVIS [2, 33]: 3.77 × 10^5
IVIS [2, 29]: 2.49 × 10^5

CCCCCCOCOCCCCCCOC(=O)C(O)CN(C)CCN(C)CCN(C)CC(O)C(=O)OCCCCCCOCOCCCCCC (centres unmarked) [Compound L0279]
PDI [1, 30]: 0.23 ± 0.02
Particle size [1, 30]: 150.80 ± 1.97 nm
IVIS [2, 31]: 2.87 × 10^5
IVIS [2, 32]: 5.19 × 10^5
